Publication PMC8037406, “Symbiotic NCR Peptide Fragments Affect the Viability, Morphology and Biofilm Formation of Candida Species” (International Journal of Molecular Sciences, 2021)
In brackets after ≈: the same amount, converted by molar mass. Where two headings read alike, the source gives them in different places.

Columns and labels:
[1] = test system: Candida albicans SZMC 1458; assay: microbe, parasite or virus in culture; format: cell-based; details: micro-dilution, YNB medium, 4 × 10^4 cell/mL, 48 h, 30 °C, OD 620 nm, MIC = growth inhibition ≥90%, peptides 25 to 1.56 µM, fluconazole 200 to 0.78 µM, three biological repeats in triplicates; for MIC: Candida albicans, SZMC1458, read-out: Minimal inhibitory concentration, Ca SZMC 1458; for all read-outs here: key: -: no growth inhibition was observed
Description: (§1) The antifungal activity of all the 14 peptides was tested against the following opportunistic human pathogen Candida species and strains: C. albicans strains ATCC 10231, SC 5314 and SZMC 1458, C. auris 0381, C. glabrata CBS 138, C. parapsilosis CBS 604 and C. tropicalis CBS 94.
(§2) All the Candida strains (Table 4) were grown overnight in YPD medium (1% pepton, 1% dextrose, 0.5% yeast extract) at 30 °C in water bath shaker prior to each experiments. The cells were harvested by centrifugation (5 min, 3000× g) washed twice with sterile distilled water and suspended in 5-fold diluted Difco Yeast Nitrogen Base w/o Amino Acids medium (Becton, Dickinson and Company, Sparks, MD, USA) supplemented with 1% dextrose, referred to as YNB medium in the text. Cells were counted in Bürker chamber and diluted to the proper concentration.
(§3) The growth inhibition of the peptides listed in Table 1 was tested in 96-well microtiter plates on Candida strains. The minimal inhibitory concentration (MIC) was determined with the micro-dilution method by adding 5 µL serially two-fold-diluted peptide solution to 95 µL of cell suspension (4 × 10^4 cell/mL) in YNB medium. After 48 h of incubation at 30 °C the optical density of the cultures was measured at 620 nm in SPECTROstar Nano plate reader (BMG LabTech, Offenburg, Germany). Minimal inhibitory concentration was defined as growth inhibition ≥90% compared to 100% growth of the untreated control. The experiments were carried out in three biological repeats always in triplicates.

Candida auris 0381 = assay: microbe, parasite or virus in culture; format: cell-based; details: micro-dilution, YNB medium, 4 × 10^4 cell/mL, 48 h, 30 °C, OD 620 nm, MIC = growth inhibition ≥90%, peptides 25 to 1.56 µM, fluconazole 200 to 0.78 µM, three biological repeats in triplicates; for MIC: Candidozyma auris, 0381, read-out: Minimal inhibitory concentration, Cau 0381; for all read-outs here: key: -: no growth inhibition was observed
Description: as §1, §2, §3

[2] = test system: Candida parapsilosis CBS 604; assay: microbe, parasite or virus in culture; format: cell-based; details: micro-dilution, YNB medium, 4 × 10^4 cell/mL, 48 h, 30 °C, OD 620 nm, MIC = growth inhibition ≥90%, peptides 25 to 1.56 µM, fluconazole 200 to 0.78 µM, three biological repeats in triplicates; for MIC: Lodderomyces parapsilosis, CBS604, read-out: Minimal inhibitory concentration, Cp CBS 604; for all read-outs here: key: -: no growth inhibition was observed
Description: as §1, §2, §3

Candida albicans SC 5314 = assay: microbe, parasite or virus in culture; format: cell-based; details: micro-dilution, YNB medium, 4 × 10^4 cell/mL, 48 h, 30 °C, OD 620 nm, MIC = growth inhibition ≥90%, peptides 25 to 1.56 µM, fluconazole 200 to 0.78 µM, three biological repeats in triplicates; for MIC: Candida albicans, SC5314, read-out: Minimal inhibitory concentration, Ca SC 5314; for all read-outs here: key: -: no growth inhibition was observed
Description: as §1, §2, §3

Candida glabrata CBS 138 = assay: microbe, parasite or virus in culture; format: cell-based; details: micro-dilution, YNB medium, 4 × 10^4 cell/mL, 48 h, 30 °C, OD 620 nm, MIC = growth inhibition ≥90%, peptides 25 to 1.56 µM, fluconazole 200 to 0.78 µM, three biological repeats in triplicates; for MIC: Nakaseomyces glabratus, CBS138, read-out: Minimal inhibitory concentration, Cg CBS 138; for all read-outs here: key: -: no growth inhibition was observed
Description: as §1, §2, §3

[3] = test system: Candida albicans ATCC 10231; assay: microbe, parasite or virus in culture; format: cell-based; details: micro-dilution, YNB medium, 4 × 10^4 cell/mL, 48 h, 30 °C, OD 620 nm, MIC = growth inhibition ≥90%, peptides 25 to 1.56 µM, fluconazole 200 to 0.78 µM, three biological repeats in triplicates; for MIC: Candida albicans, ATCC10231, read-out: Minimal inhibitory concentration, Ca ATCC 10231; for all read-outs here: key: -: no growth inhibition was observed
Description: as §1, §2, §3

[4] = test system: Candida tropicalis CBS 94; assay: microbe, parasite or virus in culture; format: cell-based; details: micro-dilution, YNB medium, 4 × 10^4 cell/mL, 48 h, 30 °C, OD 620 nm, MIC = growth inhibition ≥90%, peptides 25 to 1.56 µM, fluconazole 200 to 0.78 µM, three biological repeats in triplicates; for MIC: Candida tropicalis, CBS94, read-out: Minimal inhibitory concentration, Ct CBS 94; for all read-outs here: key: -: no growth inhibition was observed
Description: as §1, §2, §3

C. auris = details: for FIC: FIC index = FICA + FICB; for FICA / concentration of drug A for the indicated action: checkerboard, 72 h, 30 °C; for FICA: OD 620 nm
Description: Amphotericin B, due to its high toxicity was not included in this assay.
The effects of the different combinations of fluconazole and NCR335C17–33, NCR169C17–38 or NCR169C17–38ox were determined by standard checkerboard titration method. The fluconazole was tested in a concentration range from 6.25 to 75 µM, NCR169C17–38 and NCR169C17–38ox from 0.78 to 12.50 µM, NCR335C17–33 from 1.56 to 25 µM. The initial cell concentration in each well was 4 × 10^4 cell/mL. After the incubation for 72 h at 30 °C, the optical density of the cultures was detected at 620 nm in SPECTROstar Nano plate reader (BMG LabTech, Offenburg, Germany). The inhibitory concentrations were determined for each compound alone and in combinations. The experiments were carried out at least three times. The effect of combinations was evaluated by fractional inhibitory concentration (FIC) index. FIC = FICA + FICB. FICA = (MICA in combination)/(MICA alone); FICB = (MICB in combination)/(MICB alone)

[5] = fluconazole + NCR169C17–38, C. auris
[6] = fluconazole + NCR169C17–38ox, C. auris
[7] = C. auris, drug A fluconazole + drug B NCR169C17–38
[8] = C. auris, drug A fluconazole + drug B NCR335C17–33

HFSLILSD [NCR335C1–8, NCR335C fragment 1–8]
Minimal inhibitory concentration, Ca SZMC 1458 [1]: - | Minimal inhibitory concentration, Cau 0381 (Candida auris 0381): - | Minimal inhibitory concentration, Cp CBS 604 [2]: - | Minimal inhibitory concentration, Ca SC 5314 (Candida albicans SC 5314): - | Minimal inhibitory concentration, Cg CBS 138 (Candida glabrata CBS 138): - | Minimal inhibitory concentration, Ca ATCC 10231 [3]: - | Minimal inhibitory concentration, Ct CBS 94 [4]: -

FWGQNRNIMKHRGQ [NCR335N16–29, NCR335 N-terminal fragment, amino acids 16–29]
Minimal inhibitory concentration, Ca SZMC 1458 [1]: - | Minimal inhibitory concentration, Cau 0381 (Candida auris 0381): - | Minimal inhibitory concentration, Cp CBS 604 [2]: - | Minimal inhibitory concentration, Ca SC 5314 (Candida albicans SC 5314): - | Minimal inhibitory concentration, Cg CBS 138 (Candida glabrata CBS 138): - | Minimal inhibitory concentration, Ca ATCC 10231 [3]: - | Minimal inhibitory concentration, Ct CBS 94 [4]: -

OC(Cn1cncn1)(Cn1cncn1)c1ccc(F)cc1F [Fluconazole, fluconazole, reference compound]
MIC [1]: 1.56 µM (≈ 0.478 µg/mL) | MIC (Candida auris 0381): 25 µM (≈ 7.66 µg/mL) | MIC [2]: 6.25 µM (≈ 1.91 µg/mL) | MIC (Candida albicans SC 5314): 12.5 µM (≈ 3.83 µg/mL) | MIC (Candida glabrata CBS 138): 200 µM (≈ 61.3 µg/mL) | MIC [3]: 200 µM (≈ 61.3 µg/mL) | MIC [4]: 100 µM (≈ 30.6 µg/mL) | FIC (C. auris; [5]): 0.625 | FIC (C. auris; [6]): 0.5 | FIC (C. auris; fluconazole + NCR335C17–33, C. auris, * fictitious value, could be lower): ≤ 1.125 * | FICA (C. auris; [7]): 0.5 | FICA (C. auris; [8]): 1 | concentration of drug A for the indicated action (C. auris; [7]): 12.50 µM | concentration of drug A for the indicated action (C. auris; C. auris, drug A fluconazole + drug B NCR169C17–38ox): 6.25 µM | concentration of drug A for the indicated action (C. auris; [8]): 25 µM | Action (C. auris; [5]): Additive | Action (C. auris; [6]): Synergism | reduction of MIC in the synergistic combination (C. auris; fluconazole + NCR169C17–38ox, C. auris, compared with single use): 4 × | Action (C. auris; fluconazole + NCR335C17–33, C. auris): Indifferent

HFSLILSDCKTNKDCP [NCR335C1–16, NCR335C fragment 1–16]
Minimal inhibitory concentration, Ca SZMC 1458 [1]: - | Minimal inhibitory concentration, Cau 0381 (Candida auris 0381): - | Minimal inhibitory concentration, Cp CBS 604 [2]: - | Minimal inhibitory concentration, Ca SC 5314 (Candida albicans SC 5314): - | Minimal inhibitory concentration, Cg CBS 138 (Candida glabrata CBS 138): - | Minimal inhibitory concentration, Ca ATCC 10231 [3]: - | Minimal inhibitory concentration, Ct CBS 94 [4]: -

CKTNKDCP [NCR335C9–16, NCR335C fragment 9–16]
Minimal inhibitory concentration, Ca SZMC 1458 [1]: - | Minimal inhibitory concentration, Cau 0381 (Candida auris 0381): - | Minimal inhibitory concentration, Cp CBS 604 [2]: - | Minimal inhibitory concentration, Ca SC 5314 (Candida albicans SC 5314): - | Minimal inhibitory concentration, Cg CBS 138 (Candida glabrata CBS 138): - | Minimal inhibitory concentration, Ca ATCC 10231 [3]: - | Minimal inhibitory concentration, Ct CBS 94 [4]: -

C[C@@H]1[C@H](O)[C@@H](C)/C=C/C=C/C=C/C=C/C=C/C=C/C=C/[C@H](O[C@@H]2O[C@H](C)[C@@H](O)[C@H](N)[C@@H]2O)C[C@@H]2O[C@](O)(C[C@@H](O)C[C@@H](O)[C@H](O)CC[C@@H](O)C[C@@H](O)CC(=O)O[C@H]1C)C[C@H](O)[C@H]2C(=O)O [Amphotericin B, amphotericin B, reference compound]
MIC [1]: 3.12 µM (≈ 2.88 µg/mL) | MIC (Candida auris 0381): 6.25 µM (≈ 5.78 µg/mL) | MIC [2]: 3.12 µM (≈ 2.88 µg/mL) | MIC (Candida albicans SC 5314): 3.12 µM (≈ 2.88 µg/mL) | MIC (Candida glabrata CBS 138): 1.56 µM (≈ 1.44 µg/mL) | MIC [3]: 3.12 µM (≈ 2.88 µg/mL) | MIC [4]: 6.25 µM (≈ 5.78 µg/mL)

KLRRANVRCRK [NCR335C17–27, NCR335C fragment 17–27]
Minimal inhibitory concentration, Ca SZMC 1458 [1]: - | Minimal inhibitory concentration, Cau 0381 (Candida auris 0381): - | Minimal inhibitory concentration, Cp CBS 604 [2]: - | Minimal inhibitory concentration, Ca SC 5314 (Candida albicans SC 5314): - | Minimal inhibitory concentration, Cg CBS 138 (Candida glabrata CBS 138): - | Minimal inhibitory concentration, Ca ATCC 10231 [3]: - | Minimal inhibitory concentration, Ct CBS 94 [4]: -

RLNTTFRPLNFKMLR [NCR335N1–15, NCR335 N-terminal fragment, amino acids 1–15]
Minimal inhibitory concentration, Ca SZMC 1458 [1]: - | Minimal inhibitory concentration, Cau 0381 (Candida auris 0381): - | Minimal inhibitory concentration, Cp CBS 604 [2]: - | Minimal inhibitory concentration, Ca SC 5314 (Candida albicans SC 5314): - | Minimal inhibitory concentration, Cg CBS 138 (Candida glabrata CBS 138): - | Minimal inhibitory concentration, Ca ATCC 10231 [3]: - | Minimal inhibitory concentration, Ct CBS 94 [4]: -
